Laboratory results: US9573913B2, “Cathepsin cysteine protease inhibitors” (Merck Sharp & Dohme Corp., priority 2013, dated 2017)

How the values were obtained:
human cathepsin K = human cathepsin K (UniProt P43236); assay: Cathepsin K Assay (hrbCat K); format: biochemical; settings: Z-Leu-Arg-AMC substrate, pH 5.5, 15 min preincubation; read-out: hrbCat K (IP (nM))
Method in brief: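 Human cathepsin K (0.4 nM) was preincubated 15 min at room temperature with compound in 50 mM MES pH 5.5, 2.5 mM EDTA, 2.5 mM DTT and 10% DMSO. Inhibition was fitted to a dose-response model.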

human cathepsin F = molecular target: T1, human cathepsin F (Homo sapiens, UniProt Q9UBX1); assay: Cathepsin F assay (hCat F); format: biochemical; settings: Z-Phe-Arg-AMC substrate, pH 5.5, 15 min preincubation; read-out: hCat F (IP (nM))
T1 sequence (Q9UBX1 271-484): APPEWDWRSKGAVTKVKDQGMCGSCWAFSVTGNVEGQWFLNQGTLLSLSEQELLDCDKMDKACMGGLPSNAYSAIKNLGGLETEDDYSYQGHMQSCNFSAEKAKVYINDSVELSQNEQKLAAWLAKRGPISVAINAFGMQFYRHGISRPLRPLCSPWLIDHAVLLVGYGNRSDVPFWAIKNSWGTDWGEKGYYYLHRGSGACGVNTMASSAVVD
Method in brief: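 AMC release from Z-Phe-Arg-AMC, added at 8 μM, was monitored fluorometrically (360/460 nm) for 20 min after 10 nM enzyme and compound had been preincubated 15 min at room temperature. Buffer: MES 50 mM pH 5.5, EDTA and DTT 2.5 mM each, 10% DMSO. Compound DMSO dilutions spanned 500–0.025 μM (3-fold). Dose-response fitting gave % inhibition.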

Row | IC50 (human cathepsin K) | IC50 (human cathepsin F) | SMILES
1 | 5 nM | ≥ 10000 nM | N#CC1(NC(=O)[C@@H]2C[C@@H](F)CC[C@H]2c2nc(C3(C(F)(F)F)CC3)sc2-c2ccc(N3CCS(=O)(=O)CC3)cc2)CC1 [Example 232, (1R,2R,5S)-N-(1-cyanocyclopropyl)-2-(5-(4-(1,1-dioxidothiomorpho-lino)phenyl)-2-(1-(trifluoromethyl)cyclopropyl)thiazol-4-yl)-5-fluorocyclohexane-carboxamide]
2 | 4.1 nM | 6830 nM | C[C@@H](C#N)NC(=O)[C@@H]1C[C@@H](F)CC[C@H]1c1nc(CF)sc1-c1ccc(N2CCS(=O)(=O)CC2)cc1 [Example 237, (1R,2R,5S)-N-((S)-1-cyanoethyl)-2-(5-(4-(1,1-dioxidothiomorpho-lino)phenyl)-2-(fluoromethyl)thia-zol-4-yl)-5-fluorocyclohexane-carboxamide]
3 | 3.5 nM | 3170 nM | N#CC1(NC(=O)[C@@H]2C[C@@H](F)CC[C@H]2c2nc(CF)sc2-c2ccc(N3CCS(=O)(=O)CC3)cc2)CC1 [Example 238, (1R,2R,5S)-N-(1-cyanocyclopropyl)-2-(5-(4-(1,1-dioxidothiomorpho-lino)phenyl)-2-(fluoromethyl)thia-zol-4-yl)-5-fluorocyclohexane-carboxamide]
4 | 8.5 nM | 5340 nM | Cc1nc([C@@H]2CC[C@H](F)C[C@H]2C(=O)N[C@@H](C)C#N)c(-c2ccc(N3CCC(F)(F)CC3)cc2)s1 [Example 239, (1R,2R,5S)-N-((S)-1-cyanoethyl)-2-(5-(4-(4,4-difluoropiperidin-1-yl)phenyl)-2-methylthiazol-4-yl)-5-fluorocyclohexane-carboxamide]
5 | 8 nM | 7120 nM | Cc1nc([C@@H]2CC[C@H](F)C[C@H]2C(=O)NC2(C#N)CC2)c(-c2ccc(N3CCC(F)(F)CC3)cc2)s1 [Example 240, (1R,2R,5S)-N-(1-cyanocyclopropyl)-2-(5-(4-(4,4-difluoropiperidin-1-yl)phenyl)-2-methylthiazol-4-yl)-5-fluorocyclohexane-carboxamide]
6 | 34.9 nM | ≥ 10000 nM | Cc1nc([C@@H]2CC[C@H](F)C[C@H]2C(=O)N[C@@H](C)C#N)c(-c2ccc(N3CCC(C)(O)CC3)cc2)s1 [Example 241, (1R,2R,5S)-N-((S)-1-cyanoethyl)-5-fluoro-2-(5-(4-(4-hydroxy-4-methylpiperidin-1-yl)phenyl)-2-methylthiazol-4-yl)cyclohexane-carboxamide]
7 | 26.3 nM | ≥ 10000 nM | Cc1nc([C@@H]2CC[C@H](F)C[C@H]2C(=O)NC2(C#N)CC2)c(-c2ccc(N3CCC(C)(O)CC3)cc2)s1 [Example 242, (1R,2R,5S)-N-(1-cyanocyclopropyl)-5-fluoro-2-(5-(4-(4-hydroxy-4-methylpiperidin-1-yl)phenyl)-2-methylthiazol-4-yl)cyclohexane-carboxamide]
8 | 5.3 nM | 8430 nM | Cc1nc([C@@H]2CC[C@H](F)C[C@H]2C(=O)NC2(C#N)CC2)c(-c2ccc(N3CCC(S(C)(=O)=O)CC3)cc2)s1 [Example 243, (1R,2R,5S)-N-(1-cyanocyclopropyl)-5-fluoro-2-(2-methyl-5-(4-(4-(methylsulfonyl)piperidin-1-yl)phenyl)thiazol-4-yl)cyclohexane-carboxamide]
9 | 4.7 nM | 7740 nM | Cc1nc([C@@H]2CC[C@H](F)C[C@H]2C(=O)N[C@@H](C)C#N)c(-c2ccc(N3CCC(S(C)(=O)=O)CC3)cc2)s1 [Example 244, (1R,2R,5S)-N-((S)-1-cyanoethyl)-5-fluoro-2-(2-methyl-5-(4-(4-(methylsulfonyl)piperidin-1-yl)phenyl)thiazol-4-yl)cyclohexane-carboxamide]
10 | 6600 nM | ≥ 10000 nM | Cc1nc([C@H]2CCCC[C@@H]2C(=O)NCC#N)c(-c2ccc(C(=O)N3CCOCC3)cc2)s1 [Example 248, (1S,2S)-N-(cyanomethyl)-2-(2-methyl-5-(4-(morpholine-4-carbonyl)phenyl)thiazol-4-yl)cyclohexanecarboxamide]
11 | 1.8 nM | 4860 nM | N#CC1(NC(=O)[C@@H]2C[C@@H](F)CC[C@H]2c2nc(C(F)F)sc2-c2ccc(N3CCS(=O)(=O)CC3)cc2)CC1 [Example 2219, (1R,2R,5S)-N-(1-cyanocyclopropyl)-2-(2-(difluoromethyl)-5-(4-(1,1-dioxidothiomorpho-lino)phenyl)thiazol-4-yl)-5-fluorocyclohexane-carboxamide]
